In PubChem BioAssay AID1259407 (Chemical Carcinogenesis Research Information System (CCRIS), 2018):
The source made the active and inactive calls. No rule for the calls is given here.

System: CCRIS mutagenicity, Ames/micronucleus/aberration tests
Assay: CCRIS mutagenicity studies
[1] = Test System: AMES SALMONELLA TYPHIMURIUM, Strain/Indicator: TA98, Metabolic Activation: NONE, Method: STANDARD PLATE
[2] = Test System: AMES SALMONELLA TYPHIMURIUM, Strain/Indicator: TA100, Metabolic Activation: NONE, Method: STANDARD PLATE
[3] = Test System: AMES SALMONELLA TYPHIMURIUM, Strain/Indicator: TA98, Metabolic Activation: NONE, Method: PREINCUBATION
[4] = Test System: AMES SALMONELLA TYPHIMURIUM, Strain/Indicator: TA100, Metabolic Activation: NONE, Method: PREINCUBATION

Row | Compound | mutagenic call [1] | mutagenic call (Test System: AMES SALMONELLA TYPHIMURIUM, Strain/Indicator: TA98, Metabolic Activation: RAT, LIVER, S-9, PHENOBARBITAL, Method: STANDARD PLATE) | mutagenic call [2] | mutagenic call (Test System: AMES SALMONELLA TYPHIMURIUM, Strain/Indicator: TA100, Metabolic Activation: RAT, LIVER, S-9, PHENOBARBITAL, Method: STANDARD PLATE) | mutagenic call [3] | mutagenic call (Test System: AMES SALMONELLA TYPHIMURIUM, Strain/Indicator: TA98, Metabolic Activation: RAT, LIVER, S-9, PCB, Method: PREINCUBATION) | mutagenic call [4] | mutagenic call (Test System: AMES SALMONELLA TYPHIMURIUM, Strain/Indicator: TA97, Metabolic Activation: NONE, Method: STANDARD PLATE) | mutagenic call (Test System: AMES SALMONELLA TYPHIMURIUM, Strain/Indicator: TA97, Metabolic Activation: RAT, LIVER, S-9, AROCLOR 1254, Method: STANDARD PLATE) | mutagenic call (Test System: AMES SALMONELLA TYPHIMURIUM, Strain/Indicator: TA98, Metabolic Activation: HAMSTER, LIVER, S-9, AROCLOR 1254 (30%), Method: PREINCUBATION) | mutagenic call (Test System: AMES SALMONELLA TYPHIMURIUM, Strain/Indicator: TA98, Metabolic Activation: RAT, LIVER, S-9, AROCLOR 1254 (30%), Method: PREINCUBATION) | mutagenic call (Test System: AMES SALMONELLA TYPHIMURIUM, Strain/Indicator: TA98, Metabolic Activation: RAT, LIVER, S-9, AROCLOR 1254, Method: STANDARD PLATE) | mutagenic call (Test System: AMES SALMONELLA TYPHIMURIUM, Strain/Indicator: TA100, Metabolic Activation: HAMSTER, LIVER, S-9, AROCLOR 1254 (30%), Method: PREINCUBATION) | mutagenic call (Test System: AMES SALMONELLA TYPHIMURIUM, Strain/Indicator: TA100, Metabolic Activation: RAT, LIVER, S-9, AROCLOR 1254 (30%), Method: PREINCUBATION) | mutagenic call (Test System: AMES SALMONELLA TYPHIMURIUM, Strain/Indicator: TA100, Metabolic Activation: RAT, LIVER, S-9, AROCLOR 1254, Method: STANDARD PLATE) | mutagenic call (Test System: AMES SALMONELLA TYPHIMURIUM, Strain/Indicator: TA1538, Metabolic Activation: HAMSTER, LIVER, S-9, AROCLOR 1254 (30%), Method: PREINCUBATION) | mutagenic call (Test System: AMES SALMONELLA TYPHIMURIUM, Strain/Indicator: TA1538, Metabolic Activation: RAT, LIVER, S-9, AROCLOR 1254 (30%), Method: PREINCUBATION) | mutagenic call (Test System: CHINESE HAMSTER V-79, Strain/Indicator: V-79/6-THIOGUANINE, Metabolic Activation: NONE, Method: SUSPENSION/PLATE) | mutagenic call (Test System: CHINESE HAMSTER V-79, Strain/Indicator: V-79/6-THIOGUANINE, Metabolic Activation: RAT, LIVER, S-9, PHENOBARBITAL AND BETA-NAPHTHOFLAVONE, Method: SUSPENSION/PLATE)
1 | N=C(N)c1ccc2cc(C(=N)N)[nH]c2c1 | inactive; negative | inactive; negative | inactive; negative | inactive; negative | – | – | – | – | – | – | – | – | – | – | – | – | – | – | –
2 | CNc1ccc2nccnc2c1C | – | – | – | – | inactive; negative | active; positive | inactive; negative | – | – | – | – | – | – | – | – | – | – | – | –
3 | CN(C)c1ccc(C(=N)c2ccc(N(C)C)cc2)cc1 | inactive; negative | – | inactive; negative | – | inactive; negative | – | inactive; negative | inactive; negative | inactive; negative | active; positive | active; positive | inactive; negative | inactive; negative | inactive; negative | inactive; negative | active; positive | active; positive | inactive; negative | active; positive
